Assay results taken from patent publication US20090118253A1, “COMPOSITIONS AND METHODS FOR TREATING DYSFUNCTIONAL UTERINE BLEEDING” (REPROS THERAPEUTICS INC., priority 2007, published 2009).

Columns and labels:
glucocorticoid receptor = target: T1, glucocorticoid receptor (Homo sapiens, UniProt P04150); conditions: compared with parent CDB-4124; cited from earlier work
T1 sequence (P04150 1-777): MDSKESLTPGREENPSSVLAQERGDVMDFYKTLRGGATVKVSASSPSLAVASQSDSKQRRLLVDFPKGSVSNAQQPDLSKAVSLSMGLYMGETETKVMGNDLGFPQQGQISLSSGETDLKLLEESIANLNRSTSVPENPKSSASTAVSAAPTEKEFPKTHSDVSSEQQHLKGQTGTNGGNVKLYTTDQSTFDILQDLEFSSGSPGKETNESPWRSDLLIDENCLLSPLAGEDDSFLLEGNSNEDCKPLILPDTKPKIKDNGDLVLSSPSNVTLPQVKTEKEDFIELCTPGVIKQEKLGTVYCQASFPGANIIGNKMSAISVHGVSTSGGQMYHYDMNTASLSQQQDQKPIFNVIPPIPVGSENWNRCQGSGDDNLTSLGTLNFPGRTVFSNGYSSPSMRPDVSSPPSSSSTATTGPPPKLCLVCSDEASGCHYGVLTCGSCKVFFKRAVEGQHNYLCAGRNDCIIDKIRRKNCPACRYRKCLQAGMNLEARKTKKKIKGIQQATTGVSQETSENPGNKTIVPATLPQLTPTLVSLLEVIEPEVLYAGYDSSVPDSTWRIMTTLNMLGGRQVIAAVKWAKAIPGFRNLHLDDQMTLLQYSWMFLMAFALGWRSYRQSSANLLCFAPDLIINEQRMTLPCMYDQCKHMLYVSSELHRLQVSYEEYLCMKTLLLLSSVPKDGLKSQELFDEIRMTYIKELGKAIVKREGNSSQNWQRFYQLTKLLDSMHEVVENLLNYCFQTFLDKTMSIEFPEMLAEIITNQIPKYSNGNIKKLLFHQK

[1] = in vivo
Procedure: Thirty-nine pre-menopausal adult women diagnosed with endometriosis were the subject of a six month study of Proellex™ (CDB-4124) in the treatment of endometriosis. The study included three dose levels of CDB-4124 as well as a positive control arm. The positive control was Lucrin®, a GnRH agonist, commonly used for the treatment of endometriosis (also known as Lupron®). CDB-4124 was administered in a double blinded fashion as a daily oral capsule at dosages of 12.5mg/day (n=2), 25mg/day (n=3) and 50mg/day (n=3). Another group (n=4) were injected with a slow release formulation of Lucrin® once per month as a positive control.

[2] = test system: Cynomolgus monkey endometrial epithelium, uterus stroma and breast; test: TUNEL apoptosis in cynomolgus monkey tissue; format: in vivo, Cynomolgus monkeys (Macaca fascicularis); conditions: week 36, percent apoptotic cells
Procedure: Apoptosis was assessed in tissue from the same animals on slides by the terminal deoxynucleotidyl transferase mediated dUTP-biotin nick end labeling (TUNEL) technique.

human endometrium = test: Six month endometriosis study: ultrasound measurements of endometrial thickness; format: in vivo
Text: Women in the study were closely monitored for changes in the structure of the endometrium. […] Comparisons were made to both baseline and visit one ultrasound measurements of endometrial thickness. […]

[3] = test system: Cynomolgus monkey endometrial epithelia, uterus stroma and breast; test: BrdU incorporation, tissue proliferation in cynomolgus monkeys; format: in vivo, Cynomolgus monkeys (Macaca fascicularis); conditions: week 36, % cells positive for incorporation of BrdU, three animals per group
Procedure: At week 36, three animals from each group of Example 6 were injected within 24 hours of sacrifice with the thymidine analog bromodeoxyuridine (BrdU), a marker of proliferating cells and their progeny, to assess tissue proliferation. Full thickness uterine sections were stained and examined microscopically for evidence of proliferation in terms of the % cells positive for incorporation of BrdU: […]

[4] = Urinary estrogen levels (follicular phase) in cynomolgus monkeys; format: in vivo, Cynomolgus monkeys (Macaca fascicularis); set-up: Urinary estrogen, follicular phase, Mean: unit not given here; conditions: for Urinary estrogen, follicular phase, Mean: CDB-4124 or RU-486 oral 1.0 mg/kg/day, Lupron IM once per month
Procedure: (§1) Cynomolgus monkeys (Macaca fascicularis) (n=14) were treated orally for 36 weeks with CDB-4124 or RU-486 at 1.0 mg/kg/day or with placebo (control). Another group (n=14) received Lupron® IM once per month. Urinary progesterone levels were measured for each animal for one month during the middle of the study (weeks 14-17) and for the last month of the study (weeks 33-36). The results are presented below:
Urinary estrogen levels were measured for each animal of Example 6 for one month during the middle of the study (weeks 14-17) and for the last month of the study (weeks 33-36). The follicular phase results are based on 35 baseline ovulating cycles.

[5] = Urinary progesterone levels (luteal phase) in cynomolgus monkeys; format: in vivo, Cynomolgus monkeys (Macaca fascicularis); conditions: n=14 per group; CDB-4124 or RU-486 oral 1.0 mg/kg/day for 36 weeks; Lupron IM once per month
Procedure: as §1, with “33-36).” for “33-36). The results are presented below:”

[6] = test system: pre-menopausal adult women diagnosed with endometriosis; test: Six month endometriosis study: pain diaries and pain intensity surveys; format: in vivo, human
Procedure: Pain reduction also occurred more rapidly than with the active control, Lucrin®. The response of pain to treatment in this study was analyzed in two ways. Patients in the study maintained daily pain diaries to record the severity and frequency of pain. In addition, at each office visit, patients filled out endometriosis symptom surveys that included a questionnaire that evaluated intensity of pain on a bad day on a scale of 0-10 with 10 being the greatest intensity. […] This decrease in duration of pain was statistically better (p=0.0012) than the 117.8 (74%; standard deviation 51.4 days) pain free days achieved with Lucrin n. […] Patients on CDB-4124 12.5 mg and 25 mg doses had 115.9 (66%; standard deviation 69.2 days) and 133.6 (75%; standard deviation 27.4 days) pain free days, respectively. […] The 25 mg and 12.5 mg doses of CDB-4124 were not statistically different from Lucrin®. […] The intensity of pain was asked by the question: “On a scale of 1-10, with 0 being no pain and 10 being extreme pain, how intense was your pain on a bad day?” The mean scores for intensity of pain at baseline were 6.3 for the CDB-4124 groups and 6.1 for the Lucrin® group. […] At month three all four active treatment groups had satistically significant reduction in pain compared with baseline, with the following scores: 3.7 (p=0.03) for 12.5 mg CDB-4124, 3.2 (p=0.03) for 25 mg CDB-4124, 1.6 (p=0.015) for 50 mg CDB-4124 and 1.5 (p=0.016) for Lucrin®. These dose related reductions continued until month six when the values for pain intensity were 2.0 (p=0.008), 2.8 (p=0.023), 0.6 (p=0.004) and 0.7 (p=0.016), respectively. Two months after stopping treatment pain returned and was of similar intensity in all four treatment groups.

SMILES: CNc1ccc([C@H]2C[C@@]3(C)[C@@H](CC[C@]3(OC(C)=O)C(=O)COC)[C@@H]3CCC4=CC(=O)CCC4=C32)cc1 [CDB-4453, 21-methoxy-17α-acetoxy-11β-(4-N-methylaminophenyl)-19-norpregna-4,9-diene-3,20-dione]
- anti-glucocorticoid activity (glucocorticoid receptor): even lower anti-glucocorticoid activity than its parent

SMILES: CCNC(=O)[C@@H]1CCCN1C(=O)[C@H](CCCNC(=N)N)NC(=O)[C@H](CC(C)C)NC(=O)[C@@H](CC(C)C)NC(=O)[C@H](Cc1ccc(O)cc1)NC(=O)[C@H](CO)NC(=O)[C@H](Cc1c[nH]c2ccccc12)NC(=O)[C@H](Cc1c[nH]cn1)NC(=O)[C@@H]1CCC(=O)N1 [Lupron ®, leuprolide acetate]
- biomarkers of bone resorption compared with baseline [1]: statistically significant increase
- estrogen level [1]: < 20 pg/mL
- Breast Apo % [2]: 1.4 ± 0.7%
- Uterus epithelium Apo % [2]: 0.2 ± 0.1%
- Uterus stroma Apo % [2]: 0.2 ± 0.1%
- thickening of the endometrium after three months (human endometrium; Lucrin, five women): did not have a thickening of the endometrium
- Endometrium (mm), 1st dose (human endometrium; Lupron once per month, 1st dose visit): 7.5 mm
- Endometrium (mm), 3 months (human endometrium; Lupron once per month, 3 months): 2.75 mm
- Endometrium (mm), screening (human endometrium; Lupron once per month, screening (baseline)): 7.9 mm
- Breast Brdu-% [3]: 0.3 ± 0.1%
- Uterus epithelium Brdu-% [3]: 3.1 ± 0.8%
- Uterus stroma Brdu-% [3]: 2.2 ± 1.0%
- Follicular phase estrogen Lower? ([4]; Week 18): Yes
- Urinary estrogen, follicular phase, Mean ([4]; Week 18): 49.9
- Follicular phase estrogen Lower? ([4]; Week 36): Yes
- Urinary estrogen, follicular phase, Mean ([4]; Week 36): 41.7
- Decrease in luteal phase progesterone (number of animals) [5]: 13
- No decrease in luteal phase progesterone (number of animals) [5]: 1
- mean score for intensity of pain on a bad day (scale 0-10) ([6]; baseline): 6.1
- score for intensity of pain on a bad day (scale 0-10) ([6]; month six, Lucrin once per month): 0.7
- score for intensity of pain on a bad day (scale 0-10) ([6]; month three, Lucrin once per month): 1.5
- pain free days over the 180 day treatment period ([6]; women, Lucrin once per month): 117.8 days
- pain free days, percent ([6]; women, Lucrin once per month, 180 day treatment period): 74%
- days of pain over the first three months ([6]; women, Lucrin slow release injection once per month): 19.4 days
